Laboratory results: ChEMBL document CHEMBL4613209, “Quinolone hybrids and their anti-cancer activities: An overview” (Eur J Med Chem, 2019)

How the values were obtained:
GES1 = test: Cytotoxicity against human GES-1 cells assessed as reduction in cell viability; format: cell-based
MGC-803 = test: Cytotoxicity against human MGC803 cells assessed as reduction in cell viability; format: functional, cell-based
SW-620 = test: Cytotoxicity against human SW620 cells assessed as reduction in cell viability; format: functional, cell-based
MCF7 [1] = test: Cytotoxicity against human MCF7 cells assessed as reduction in cell viability; format: functional, cell-based
PC-3 = test: Cytotoxicity against human PC3 cells assessed as reduction in cell viability; format: functional, cell-based
NCI-H460 = test: Cytotoxicity against human NCI-H460 cells assessed as reduction in cell viability; format: functional, cell-based
HepG2 = test: Cytotoxicity against human HepG2 cells assessed as reduction in cell viability; format: functional, cell-based
A549 = test: Antiproliferative activity against human A549 cells after 72 hrs by MTT assay; format: functional, cell-based; conditions: A549, 72 h
HL-60 [2] = test: Antiproliferative activity against human HL60 cells after 72 hrs by MTT assay; format: functional, cell-based; conditions: HL-60, 72 h
L1210 = test: Antiproliferative activity against mouse L1210 cells by MTT assay; format: functional, cell-based
HL-60 [3] = test: Antiproliferative activity against human HL60 cells by MTT assay; format: functional, cell-based
SMMC-7721 = test: Antiproliferative activity against human SMMC7721 cells by MTT assay; format: functional, cell-based
SK-MEL3 = test: Cytotoxicity against human SK-MEL-3 cells assessed as reduction in cell viability by MTT assay; format: functional, cell-based
MCF7 [4] = test: Cytotoxicity against human MCF7 cells assessed as reduction in cell viability by MTT assay; format: functional, cell-based
A-431 = test: Cytotoxicity against human A431 cells assessed as reduction in cell viability by MTT assay; format: functional, cell-based
SW480 = test: Cytotoxicity against human SW480 cells assessed as reduction in cell viability by MTT assay; format: functional, cell-based
EJ = test: Cytotoxicity against human EJ cells assessed as reduction in cell viability by MTT assay; format: functional, cell-based

Measured: IC50

C[C@H]1COc2c(N3CCN(C)CC3)c(F)cc3c(=O)c(-c4nnc(NC(=O)CCCCCCC(=O)NO)s4)cn1c23
> 100 µM: GES1
0.6 to 3.1 µM: MGC-803 | SW-620 | MCF7 [1] | PC-3 | NCI-H460 | HepG2

N=C(NS(=O)(=O)c1ccc(C(F)(F)F)cc1)N1CCN(c2cc3c(cc2F)c(=O)c(C(=O)O)cn3C2CC2)CC1
0.032 to 0.161 µM: A549 | HL-60 [2]

CCn1cc(C(=O)O)c(=O)c2cc(F)c(N3CCN(C(=N)NS(=O)(=O)c4cccc(Cl)c4)CC3)cc21
0.032 to 0.161 µM: A549 | HL-60 [2]

N=C(NS(=O)(=O)c1ccccc1)N1CCN(c2cc3c(cc2F)c(=O)c(C(=O)O)cn3C2CC2)CC1
0.032 to 0.161 µM: A549 | HL-60 [2]

Cc1ccccc1C1=NN=C2C(F)=Cc3c(n(C4CC4)cc(C(=O)O)c3=O)N2C1
1 to 48.6 µM: L1210 | HL-60 [3] | SMMC-7721

COc1ccc(C2=NN=C3C(F)=Cc4c(n(C5CC5)cc(C(=O)O)c4=O)N3C2)cc1
1 to 48.6 µM: L1210 | HL-60 [3] | SMMC-7721

C[C@H]1COc2c(N3CCN(C)CC3)c(F)cc3c(=O)c(-c4nnc(NC(=O)CCCCCCC(=O)Nc5ccccc5N)s4)cn1c23
0.046 to 0.203 µM: MGC-803 | SW-620 | MCF7 [1] | PC-3 | NCI-H460 | HepG2
> 81.5 µM: GES1

C[C@H]1COc2c(N3CCN(C)CC3)c(F)cc3c(=O)c(-c4nnc(NC(=O)CCCC(=O)NO)s4)cn1c23
> 81.5 µM: GES1
0.019 to 0.127 µM: MGC-803 | SW-620 | MCF7 [1] | PC-3 | NCI-H460 | HepG2

CCn1cc(C(=O)O)c(=O)c2cc(F)c(N3CCN(C(=N)NS(=O)(=O)c4ccccc4C(F)(F)F)CC3)cc21
0.032 to 0.161 µM: A549 | HL-60 [2]

O=C(O)c1cn(C2CC2)c2c(c1=O)C=C(F)C1=NN=C(c3ccc(F)cc3)CN12
1 to 48.6 µM: L1210 | HL-60 [3] | SMMC-7721

CCn1cc(C(=O)O)c(=O)c2cc(F)c(N3CCN(C(=N)NS(=O)(=O)c4ccc(C)cc4)CC3)cc21
0.032 to 0.161 µM: A549 | HL-60 [2]

N=C(NS(=O)(=O)c1ccccc1C(F)(F)F)N1CCN(c2cc3c(cc2F)c(=O)c(C(=O)O)cn3C2CC2)CC1
0.032 to 0.161 µM: A549 | HL-60 [2]

C[C@H]1COc2c(N3CCN(C)CC3)c(F)cc3c(=O)c(-c4nnc(NC(=O)CCCCCCC(=O)O)s4)cn1c23
> 81.5 µM: GES1
1.1 to 14.3 µM: MGC-803 | SW-620 | MCF7 [1] | PC-3 | NCI-H460 | HepG2

C[C@H]1COc2c(N3CCN(C)CC3)c(F)cc3c(=O)c(-c4nnc(NC(=O)CCCCCC(=O)O)s4)cn1c23
1.1 to 14.3 µM: MGC-803 | SW-620 | MCF7 [1] | PC-3 | NCI-H460 | HepG2
> 81.5 µM: GES1

N=C(NS(=O)(=O)c1ccccc1Cl)N1CCN(c2cc3c(cc2F)c(=O)c(C(=O)O)cn3C2CC2)CC1
0.032 to 0.079 µM: A549 | HL-60 [2]

CCn1cc(C(=O)O)c(=O)c2cc(F)c(N3CCN(C(=N)NS(=O)(=O)c4ccccc4Cl)CC3)cc21
0.032 to 0.079 µM: A549 | HL-60 [2]

C[C@H]1COc2c(N3CCN(C)CC3)c(F)cc3c(=O)c(-c4nnc(NC(=O)CCCCC(=O)O)s4)cn1c23
> 81.5 µM: GES1
1.1 to 14.3 µM: MGC-803 | SW-620 | MCF7 [1] | PC-3 | NCI-H460 | HepG2

C[C@H]1COc2c(N3CCN(C)CC3)c(F)cc3c(=O)c(-c4nnc(NC(=O)CCCCCC(=O)NO)s4)cn1c23
> 81.5 µM: GES1
0.019 to 0.127 µM: MGC-803 | SW-620 | MCF7 [1] | PC-3 | NCI-H460 | HepG2

O=C(O)c1cn(C2CC2)c2c(c1=O)C=C(F)C1=NN=C(c3cccc(Cl)c3)CN12
1 to 48.6 µM: L1210 | HL-60 [3] | SMMC-7721

Cc1ccc(C2=NN=C3C(F)=Cc4c(n(C5CC5)cc(C(=O)O)c4=O)N3C2)cc1
1 to 48.6 µM: L1210 | HL-60 [3] | SMMC-7721

N=C(NS(=O)(=O)c1cccc(Cl)c1)N1CCN(c2cc3c(cc2F)c(=O)c(C(=O)O)cn3C2CC2)CC1
0.032 to 0.161 µM: A549 | HL-60 [2]

N=C(NS(=O)(=O)c1ccc(Cl)cc1)N1CCN(c2cc3c(cc2F)c(=O)c(C(=O)O)cn3C2CC2)CC1
0.032 to 0.161 µM: A549 | HL-60 [2]

CCn1cc(C(=O)O)c(=O)c2cc(F)c(N3CCN(C(=N)NS(=O)(=O)c4ccc(C(F)(F)F)cc4)CC3)cc21
0.032 to 0.161 µM: A549 | HL-60 [2]

C[C@H]1COc2c(N3CCN(C)CC3)c(F)cc3c(=O)c(-c4nnc(NC(=O)CCCCCCCC(=O)Nc5ccccc5N)s4)cn1c23
0.046 to 0.203 µM: MGC-803 | SW-620 | MCF7 [1] | PC-3 | NCI-H460 | HepG2
> 81.5 µM: GES1

O=C(O)c1cn(C2CC2)c2c(c1=O)C=C(F)C1=NN=C(c3ccc(Cl)cc3)CN12
1 to 48.6 µM: L1210 | HL-60 [3] | SMMC-7721

O=C(O)c1cn(C2CC2)c2c(c1=O)C=C(F)C1=NN=C(c3ccccc3)CN12
1 to 48.6 µM: L1210 | HL-60 [3] | SMMC-7721

C[C@H]1COc2c(N3CCN(C)CC3)c(F)cc3c(=O)c(-c4nnc(NC(=O)CCCCC(=O)NO)s4)cn1c23
0.019 to 0.127 µM: MGC-803 | SW-620 | MCF7 [1] | PC-3 | NCI-H460 | HepG2
> 81.5 µM: GES1

C[C@H]1COc2c(N3CCN(C)CC3)c(F)cc3c(=O)c(-c4nnc(NC(=O)CCCCCCCC(=O)NO)s4)cn1c23
> 81.5 µM: GES1
0.019 to 0.127 µM: MGC-803 | SW-620 | MCF7 [1] | PC-3 | NCI-H460 | HepG2

C[C@H]1COc2c(N3CCN(C)CC3)c(F)cc3c(=O)c(-c4nnc(NC(=O)CCCCC(=O)Nc5ccccc5N)s4)cn1c23
0.046 to 0.203 µM: MGC-803 | SW-620 | MCF7 [1] | PC-3 | NCI-H460 | HepG2
> 81.5 µM: GES1

C[C@H]1COc2c(N3CCN(C)CC3)c(F)cc3c(=O)c(-c4nnc(NC(=O)CCCCCCCCC(=O)Nc5ccccc5N)s4)cn1c23
> 81.5 µM: GES1
0.046 to 0.203 µM: MGC-803 | SW-620 | MCF7 [1] | PC-3 | NCI-H460 | HepG2

COc1ccccc1C1=NN=C2C(F)=Cc3c(n(C4CC4)cc(C(=O)O)c3=O)N2C1
1 to 48.6 µM: L1210 | HL-60 [3] | SMMC-7721

C[C@H]1COc2c(N3CCN(C)CC3)c(F)cc3c(=O)c(-c4nnc(NC(=O)CCCCCCCCC(=O)O)s4)cn1c23
1.1 to 14.3 µM: MGC-803 | SW-620 | MCF7 [1] | PC-3 | NCI-H460 | HepG2
> 81.5 µM: GES1

C[C@H]1COc2c(N3CCN(C)CC3)c(F)cc3c(=O)c(-c4nnc(NC(=O)CCCCCCCC(=O)O)s4)cn1c23
1.1 to 14.3 µM: MGC-803 | SW-620 | MCF7 [1] | PC-3 | NCI-H460 | HepG2
> 81.5 µM: GES1

COc1ccc(C2=NN=C3C(F)=Cc4c(n(C5CC5)cc(C(=O)O)c4=O)N3C2)cc1OC
1 to 48.6 µM: L1210 | HL-60 [3] | SMMC-7721

CCn1cc(C(=O)O)c(=O)c2cc(F)c(N3CCN(C(=N)NS(=O)(=O)c4ccccc4)CC3)cc21
0.032 to 0.161 µM: A549 | HL-60 [2]

CCn1cc(C(=O)O)c(=O)c2cc(F)c(N3CCN(C(=N)NS(=O)(=O)c4ccc(Cl)cc4)CC3)cc21
0.032 to 0.161 µM: A549 | HL-60 [2]

C[C@H]1COc2c(N3CCN(C)CC3)c(F)cc3c(=O)c(-c4nnc(NC(=O)CCCCCCCCC(=O)NO)s4)cn1c23
> 81.5 µM: GES1
0.019 to 0.127 µM: MGC-803 | SW-620 | MCF7 [1] | PC-3 | NCI-H460 | HepG2

C[C@H]1COc2c(N3CCN(C)CC3)c(F)cc3c(=O)c(-c4nnc(NC(=O)CCCC(=O)O)s4)cn1c23
1.1 to 14.3 µM: MGC-803 | SW-620 | MCF7 [1] | PC-3 | NCI-H460 | HepG2
> 81.5 µM: GES1

C[C@H]1COc2c(N3CCN(C)CC3)c(F)cc3c(=O)c(-c4nnc(NC(=O)CCCCCC(=O)Nc5ccccc5N)s4)cn1c23
> 81.5 µM: GES1
0.046 to 0.203 µM: MGC-803 | SW-620 | MCF7 [1] | PC-3 | NCI-H460 | HepG2

O=C(O)c1cn(C2CC2)c2c(c1=O)C=C(F)C1=NN=C(c3ccc(Br)cc3)CN12
1 to 48.6 µM: L1210 | HL-60 [3] | SMMC-7721

Cc1ccc(S(=O)(=O)NC(=N)N2CCN(c3cc4c(cc3F)c(=O)c(C(=O)O)cn4C3CC3)CC2)cc1
0.032 to 0.161 µM: A549 | HL-60 [2]

C[C@H]1COc2c(N3CCN(C)CC3)c(F)cc3c(=O)c(-c4nnc(NC(=O)CCCC(=O)Nc5ccccc5N)s4)cn1c23
0.046 to 0.203 µM: MGC-803 | SW-620 | MCF7 [1] | PC-3 | NCI-H460 | HepG2
> 81.5 µM: GES1

CCc1c2c(nc3ccc(OC(=O)N4CCC(N5CCCCC5)CC4)cc13)-c1cc3c(c(=O)n1C2)COC(=O)[C@]3(O)CC [IRINOTECAN]
0.032 to 0.044 µM: HL-60 [2]

CCn1cc(C(=O)O)c(=O)c2cc(F)c(N3CCNCC3)cc21 [NORFLOXACIN]
> 0.302 µM: A549 | HL-60 [2]
137 to 238 µM: SK-MEL3 | MCF7 [4] | A-431 | SW480 | EJ
